Results taken from patent US9427479B2, “Tubulysin derivatives” (MedImmune LLC, priority 2014, dated 2016).

Experiments:
Format in all cases: cell-based
MB231 = experiment: In vitro proliferation assay (CellTiter-Glo), MB231; conditions: Homo sapiens; MB231 cells; cultured 72 to 144 hours; CellTiter-Glo cell viability
HCT116 = experiment: In vitro proliferation assay (CellTiter-Glo), HCT116; conditions: Homo sapiens, HCT-116; HCT116 cells; cultured 72 to 144 hours; CellTiter-Glo cell viability
DU145 = experiment: In vitro proliferation assay (CellTiter-Glo), DU145; conditions: Homo sapiens, DU-145; DU145 cells; cultured 72 to 144 hours; CellTiter-Glo cell viability
Description: A panel of human cancer cell lines (DU 145, NCI-N87, and MDA-MB-361) obtained from the American Type Tissue Collection (ATCC) (P.O. Box 1549, Manassa, Va. 20108 (USA)) were used to determine the relative cytotoxicity of tubulysin compounds of the invention. The cells were plated in culture media at a density of 2,000 to 5,000 per well of tissue-culture-treated 96-well plates in a volume of 80 μl and allowed to adhere overnight. A 5× concentration of each compound tested was prepared by diluting the test articles in culture medium. Twenty microliters of each test article was added to cells in duplicate or triplicate such that the final dose curve ranged from 4 μg/ml down to 61 pg/ml in a stepwise 1:4 serial dilution series. The treated cells were cultured at 37° C./5% CO2 for 72 to 144 hours. The CellTiter-Glo Luminescent Viability Assay from Promega was used to determine relative cytotoxicity. Briefly, 100 μl of CellTiter-Glo reagent was added to each well, allowed to incubate for 10 minutes at room temperature with mild shaking and then the […] was read using a Perkin Elmer EnVision luminometer. The percent cell viability was calculated by the following formula: (average luminescence of treated samples/average luminescence of control (untreated) samples)×100. IC50 values were determined using logistic non-linear regression analysis with GraphPad Prism software. Not all compounds were assayed against all cell lines.

| SMILES | IC50 (MB231) [nM] | IC50 (HCT116) [nM] | IC50 (DU145) [nM] |
| --- | --- | --- | --- |
| CC[C@H](C)[C@H](NC(=O)[C@H]1C[C@H](C)CCN1C)C(=O)N(CC)[C@H](C[C@@H](OC(C)=O)c1nc(C(=O)N[C@@H](Cc2ccc(N)cc2)C[C@H](C)C(=O)O)cs1)C(C)C [Compound 1, (2S,4R)-4-(2-((1R,3R)-1-acetoxy-3-((2S,3S)-2-((2R,4R)-1,4-dimethylpiperidine-2-carboxamido)-N-ethyl-3-methylpentanamido)-4-methylpentyl)thiazole-4-carboxamido)-5-(4-aminophenyl)-2-methylpentanoic acid] | 2.5 | 0.6 | 0.2 |
| CC[C@H](C)[C@H](NC(=O)C1(CC)CCCCN1C)C(=O)N(CC)[C@H](C[C@@H](OC(C)=O)c1nc(C(=O)N[C@@H](Cc2ccc(N)cc2)C[C@H](C)C(=O)O)cs1)C(C)C (stereo partly drawn) [Compound 2, (2S,4R)-4-(2-((1R,3R)-1-acetoxy-3-((2S,3S)—N-ethyl-2-(2-ethyl-1-methylpiperidine-2-carboxamido)-3-methylpentanamido)-4-methylpentyl)thiazole-4-carboxamido)-5-(4-aminophenyl)-2-methylpentanoic acid] |  |  | 0.5 |
| CC[C@H](C)[C@H](NC(=O)[C@H]1C[C@H](C)CCN1C)C(=O)N(C)[C@H](C[C@@H](OC(C)=O)c1nc(C(=O)N[C@@H](Cc2ccccc2)C[C@H](C)C(=O)O)cs1)C(C)C [Compound 5, (2S,4R)-4-(2-((1R,3R)-1-acetoxy-3-((2S,3S)-2-((2R,4R)-1,4-dimethylpiperidine-2-carboxamido)-N,3-dimethylpentanamido)-4-methylpentyl)thiazole-4-carboxamido)-2-methyl-5-phenylpentanoic acid] | 3.4 | 0.5 | 0.9 |
| CC[C@H](C)[C@H](NC(=O)[C@H]1CC(C)(C)CCN1C)C(=O)N(C)[C@H](C[C@@H](OC(C)=O)c1nc(C(=O)N[C@@H](Cc2ccccc2)C[C@H](C)C(=O)O)cs1)C(C)C [Compound 4, (2S,4R)-4-(2-((1R,3R)-1-acetoxy-3-((2S,3S)—N,3-dimethyl-2-((R)-1,4,4-trimethylpiperidine-2-carboxamido)pentanamido)-4-methylpentyl)thiazole-4-carboxamido)-2-methyl-5-phenylpentanoic acid] | 3.9 | 1.8 | 1.3 |
| CC[C@H](C)[C@H](NC(=O)[C@@]1(C)CCCCN1C)C(=O)N(CC)[C@H](C[C@@H](OC(C)=O)c1nc(C(=O)N[C@@H](Cc2ccc(N)cc2)C[C@H](C)C(=O)O)cs1)C(C)C [Compound 3, (2S,4R)-4-(2-((1R,3R)-1-acetoxy-3-((2S,3S)-2-((R)-1,2-dimethylpiperidine-2-carboxamido)-N-ethyl-3-methylpentanamido)-4-methylpentyl)thiazole-4-carboxamido)-5-(4-aminophenyl)-2-methylpentanoic acid] |  |  | 0.2 |
| CC[C@H](C)[C@H](NC(=O)[C@H]1C[C@H](C)CCN1C)C(=O)N(C)[C@H](C[C@@H](OC(C)=O)c1nc(C(=O)N[C@@H](Cc2ccc(N)cc2)C[C@H](C)C(=O)O)cs1)C(C)C [Compound 6, (2S,4R)-4-(2-((1R,3R)-1-acetoxy-3-((2S,3S)-2-((2R,4R)-1,4-dimethylpiperidine-2-carboxamido)-N,3-dimethylpentanamido)-4-methylpentyl)thiazole-4-carboxamido)-5-(4-aminophenyl)-2-methylpentanoic acid] | 6.6 | 1.9 | 4 |
